# Test results reported in patent publication US12269800B2, “Delivery of therapeutic alkaloid compounds” (priority 2021, dated 2025).
# Read-outs that look alike come from different tables or passages of the source.
# What was measured:
# [1] = Hydrolysis Assay of Example A2, Condition 1 (SGF with pepsin, pH 1.5, 37° C.); type: physicochemical; details: SGF with pepsin pH 1.5, 37° C., 0.5 mM
# [2] = 2 mg/kg iv in rat
# Description: Brain samples were homogenized with PBS (W/V, 1:3). Plasma/brain samples were mixed with acetonitrile containing internal standard. The samples were vortexed then centrifuged at 4 degrees Celsius for 15 minutes. The supernatant was diluted with water (1:2 V/V) and analyzed by LC/MS/MS for quantitative analysis. […] Area under the curve (AUC) was calculated and divided by dose to account for molecular weight difference of prodrug and metabolite (AUC/D).
# [3] = type: physicochemical; details: DI water, 25° C., 0.5 mM
# [4] = in vivo; cited from earlier work
# [5] = molecular target: T1, SERT (Homo sapiens, UniProt P31645); assay: cell-based; details: stable 5HTT cells, 30 minutes at 37° C.
# T1 construct: expressed in transfected cells
# T1 sequence (P31645 whole entry, species assumed): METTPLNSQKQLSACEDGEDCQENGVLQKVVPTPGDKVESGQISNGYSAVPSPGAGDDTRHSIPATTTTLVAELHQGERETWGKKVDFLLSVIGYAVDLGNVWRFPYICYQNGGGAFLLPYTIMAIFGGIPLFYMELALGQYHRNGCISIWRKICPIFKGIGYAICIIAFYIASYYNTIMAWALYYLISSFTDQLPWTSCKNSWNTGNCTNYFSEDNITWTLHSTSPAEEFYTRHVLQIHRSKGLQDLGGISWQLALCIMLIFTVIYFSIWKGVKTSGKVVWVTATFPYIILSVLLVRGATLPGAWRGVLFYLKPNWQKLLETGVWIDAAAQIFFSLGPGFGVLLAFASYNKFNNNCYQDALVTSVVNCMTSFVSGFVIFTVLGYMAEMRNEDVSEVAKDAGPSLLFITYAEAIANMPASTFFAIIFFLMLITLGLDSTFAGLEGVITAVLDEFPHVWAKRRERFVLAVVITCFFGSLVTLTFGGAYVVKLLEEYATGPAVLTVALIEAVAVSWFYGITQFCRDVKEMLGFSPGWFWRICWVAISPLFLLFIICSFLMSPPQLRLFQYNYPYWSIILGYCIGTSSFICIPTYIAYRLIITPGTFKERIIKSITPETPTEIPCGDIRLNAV
# [6] = type: physicochemical; details: acidic pH 2.0, 25 or 37° C.
# Description: The hydrolysis kinetics was under a certain temperature and measured by LCMS at a certain time interval. The corresponding LCMS chromatograms were recorded and the conversions were calculated. The hydrolysis conditions and the data were summarized in below table. LCMS spectra were obtained using Agilent 1200G1956A or SHIMADZU LCMS-2020. Standard LCMS conditions were as follows (running time 1.55 minutes):
# Acidic condition: Mobile Phase A: 0.0375% TFA in water (v/v). Mobile Phase B: 0.01875% TFA in acetonitrile (v/v); Column: Kinetex EVO C18 30*2.1 mm, 5 μm.
# Basic condition: Mobile Phase A: 0.025% NH3—H2O in water (v/v). Mobile Phase B: Acetonitrile; Column: Kinetex EVO C18 2.1×30 mm, 5 μm.
# Conversion (%)=peak area 1/(peak area 1+peak area 2)*100%, peak area 1 is the integration of hydrolyzed product, peak area 2 is the integration of starting material.
structure (smiles),measurement,setting,value
"CCC(C)CC(=O)OC1=C[C@@H]2N(C)CC[C@]2(c2ccc(OC)c(OC)c2)CC1 (stereo partly drawn) [Compound 316, [(3aS,7aS)-3a-(3,4-dimethoxyphenyl)-1-methyl-3,4,5,7a-tetrahydro-2H-indol-6-yl]3-methyl pentanoate]",Condition 1 Conversion (%),[1]; time 1 min,0%
same,Condition 1 Conversion (%),[1]; time 5 min,0%
same,Condition 1 Conversion (%),[1]; time 30 min,0%
same,Condition 1 Conversion (%),[1]; time 1 h,0%
same,Condition 1 Conversion (%),[1]; time 4 h,0%
same,Condition 1 Conversion (%),[1]; time 24 h,0%
same,conversion to 001 in vivo,[2],converts to 001 in vivo
same,Condition 2 Conversion (%),[3]; time 1 min,0%
same,Condition 2 Conversion (%),[3]; time 5 min,0%
same,Condition 2 Conversion (%),[3]; time 30 min,0%
same,Condition 2 Conversion (%),[3]; time 1 h,0%
same,Condition 2 Conversion (%),[3]; time 4 h,0%
same,Condition 2 Conversion (%),[3]; time 24 h,0%
COc1ccc([C@@]23CCC(=O)C[C@@H]2N(C)CC3)cc1OC [(−) mesembrine],half-life in plasma,[4],less than 2 hours
COc1ccc([C@@]23CCC(=NO)C[C@@H]2N(C)CC3)cc1OC (mixture of isomers) [Compound 037],IC50,[5],< 50 nM
same,conversion to mesembrine,[6],converted to mesembrine
